Test results: patent US8841324B2, “Heterocyclic compounds as autotaxin inhibitors” (Merck Patent GmbH, priority 2009, dated 2014)
pIC50: −log10 of the molar value.

These molecules were tested against T1, recombinant autotaxin (Homo sapiens, UniProt Q13822) (assay: Autotaxin test (enzyme test), Amplex Red fluorescence readout). Settings: Autotaxin inhibition (enzyme test); substrate LPC 75 μM, 37° C. for 90 min.
T1 construct: made in house; host or cells: Hi5 insect cells (baculovirus)
Format: biochemical
Procedure: Pharmacological Data Autotaxin Inhibition (Enzyme Test)
Autotaxin Test (Enzyme Test)
The autotaxin activity is measured indirectly using Amplex Red reagent. Amplex Red is measured here as fluorogenic indicator for the H2O2 formed. In detail, autotaxin converts the substrate lysophosphatidylcholine (LPC) into phosphocholine and lysophosphatidylic acid (LPA). After this reaction, the phosphocholine is reacted with alkaline phosphatase to give inorganic phosphate and choline. In the next step, choline is oxidised by choline oxidase to give betaine, with formation of H2O2. H2O2 reacts with Amplex Red reagent in the presence of peroxidase (horseradish peroxidase) in a 1:1 stoichiometry and forms the highly fluorescent resorufin. The fluorescence is measured in a reaction-dependent kinetic mode in order that fluorescent signals from possible other fluorescent substances which are not involved in the reaction can be corrected out.
1.5 μl of a standard solution or of the test substances (substances with the name A(n)) in individual concentrations dissolved in 20 mM Hepes pH 7.2 with a maximum of 7.7% of DMSO are pre-incubated together with 10 μl (16 ng) of highly purified recombinant autotaxin in a black microtitre plate provided with 384 wells at 22° C. for 30 min. The reaction is then initiated by addition of 5 μl of L-α-lysophosphatidylcholine (LPC), where the final concentration of LPC is 75 μM. The mixture is incubated at 37° C. for 90 min. After the incubation, Amplex Red reagent, peroxidase (horseradish peroxidase) and choline oxidase is added, and the fluorescence is immediately measured at 612 nm with excitation of 485 nm in a “Tecan Ultra multimode” reader. The activity of autotaxin is calculated indirectly via detection of the H2O2 formed.
• Microtitre plate: PS microplate, 384 wells, small volume, black Corning, Cat#3677 • Protein: recombinant autotaxin (Baculovirale Hi5 Expression) • Substrate: L-α-lysophosphatidylcholine (chicken egg)); Avanti Polar Lipids #830071P • Standard: C14 LPA, Avanti Polar Lipids, Cat#857120P • Detection reagent: Amplex Red reagent; Invitrogen # A12222; dissolved in 1.923 ml of DMSO peroxidase type VI-A (horseradish) from Sigma # P6782; dissolved in 7.45 ml of test buffer, choline oxidase; Sigma # C5896; dissolved in 2.47 ml of test buffer • Detection reagent mix: 1:100 dilution of Amplex Red reagent in test buffer • Test buffer: 200 mM Tris HCl, Merck, Cat #1.08219, pH 7.9, 0.1% of BSA, lipid-free, Roche Cat#775835

Row | Compound | pIC50
1 | O=C(CCNC(=O)N1CCN(C(=O)OCc2ccc(Cl)cc2)CC1)Nc1ccc2[nH]nnc2c1 [Compound 33, 4-chlorobenzyl 4-[2-(1H-benzotriazol-5-ylcarbamoyl)ethyl-carbamoyl]piperazine-1-carboxylate] | < 6.00
2 | O=C(CN1CCC(NC(=O)OCc2cc(Cl)cc(Cl)c2)C1)Nc1ccc2[nH]nnc2c1 (stereo not drawn) [Compound A16, 3,5-Dichlorobenzyl {1-[(1H-benzotriazol-5-yl-carbamoyl)methyl]pyrrolidin-3-yl}crbamate] | < 6.00
3 | O=C(CN1CCN(C(=O)CCOc2ccc(Cl)cc2)CC1)c1ccc2[nH]c(=O)oc2c1 [Compound 27, 6-(2-{4-[3-(4-chlorophenoxy)propionyl]piperazin-1-yl}acetyl)-3H-benzoxazol-2-one] | < 6.00
4 | O=C(NCCN1CCN(C(=O)OCc2ccc(Cl)cc2F)CC1)c1ccc2[nH]nnc2c1 [Compound A3, 4-Chloro-2-fluorobenzyl 4-{2-[(1H-benzotriazole-5-carbonyl)amino]ethyl}piperazine-1-carboxylate] | < 6.00
5 | O=C(OCc1cc(Cl)cc(Cl)c1)N1CCN(CC(O)c2ccc3[nH]c(=O)oc3c2)CC1 (stereo not drawn) [Compound A18, 3,5-Dichlorobenzyl 4-[2-hydroxy-2-(2-oxo-2,3-dihydrobenzoxazol-6-yl)ethyl]piperazine-1-carboxylate] | < 6.00
6 | O=C(Cc1ccc2[nH]nnc2c1)N1CCN(C(=O)OCc2ccc(Cl)cc2)CC1 [Compound 24, 4-chlorobenzyl 4-(2-1H-benzotriazol-5-ylacetyl)piperazine-1-carboxylate] | < 6.00
7 | O=C(OCc1cc(Cl)cc(Cl)c1)N1CCN(CCC(O)c2ccc3[nH]c(=O)oc3c2)CC1 (stereo not drawn) [Compound 13, 3,5-dichlorobenzyl 4-[3-hydroxy-3-(2-oxo-2,3-dihydrobenzoxazol-6-yl)propyl]piperazine-1-carboxylate] | 6.00 to 7.00
8 | O=C(CNC1CCN(C(=O)OCc2cc(Cl)cc(Cl)c2)CC1)Nc1ccc2[nH]c(=O)oc2c1 [Compound 11, 3,5-dichlorobenzyl 4-{[(2-oxo-2,3-dihydrobenzoxazol-6-ylcarbamoyl)methyl]amino}piperidine-1-carboxylate] | 6.00 to 7.00
9 | O=C(OCc1cc(Cl)cc(Cl)c1)N1CCN(CCN2CCC(c3ccc4[nH]c(=O)oc4c3)=N2)CC1 [Compound 21, 3,5-dichlorobenzyl 4-{2-[3-(2-oxo-2,3-dihydrobenzoxazol-6-yl)-4,5-dihydropyrazol-1-yl]ethyl}piperazine-1-carboxylate] | < 6.00
10 | O=C(NCCN1CCN(C(=O)OCc2cc(Cl)cc(Cl)c2)CC1)c1ccc2[nH]nnc2c1 [Compound A1, 3,5-Dichlorobenzyl 4-{2-[(1H-benzotriazole-5-carbonyl)amino]ethyl}piperazine-1-carboxylate] | 6.00 to 7.00
11 | O=C(CCN1CCN(C(=O)OCc2ccc(Cl)cc2)CC1)Nc1ccc2[nH]c(=O)oc2c1 [Compound A13, 4-Chlorobenzyl 4-[2-(2-oxo-2,3-dihydrobenzoxazol-6-ylcarbamoyl)ethyl]piperazine-1-carboxylate] | < 6.00
12 | O=C(NC1[C@H]2CN(C(=O)OCc3cc(Cl)cc(Cl)c3)C[C@@H]12)c1ccc2nn[nH]c2c1 (stereo partly drawn) [Compound A17, 3,5-Dichlorobenzyl (1R,5S)-6-[(3H-benzotriazole-5-carbonyl)amino]-3-azabicyclo[3.1.0]hexane-3-carboxylate] | < 6.00
13 | O=C(Nc1ccc2[nH]c(=O)oc2c1)C(c1ccccc1)N1CCN(C(=O)OCc2ccc(Cl)cc2)CC1 (stereo not drawn) [Compound A10, 4-Chlorobenzyl 4-[(2-oxo-2,3-dihydrobenzoxazol-6-ylcarbamoyl)phenylmethyl]piperazine-l-carboxylate] | < 6.00
14 | O=C(OCc1ccc(Cl)cc1)N1CCN(CCC(F)(F)c2ccc3[nH]c(=O)oc3c2)CC1 [Compound 17, 4-chlorobenzyl 4-[3,3-difluoro-3-(2-oxo-2,3-dihydrobenzoxazol-6-yl)propyl]piperazine-1-carboxylate] | 6.00 to 7.00
15 | O=C(CN1CCN(C(=O)OCc2ccc(Cl)cc2)CC1)Nc1ccc2[nH]c(=O)oc2c1 [Compound A8, 4-Chlorobenzyl 4-[(2-oxo-2,3-dihydrobenzoxazol-6-ylcarbamoyl)methyl]piperazine-1-carboxylate] | < 6.00
16 | O=C(CC(=O)NC1CCN(C(=O)OCc2ccc(Cl)cc2)CC1)Nc1ccc2[nH]nnc2c1 [Compound 39, 4-chlorobenzyl 4-[2-(1H-benzotriazol-5-ylcarbamoyl)acetylamino]piperidine-1-carboxylate] | 6.00 to 7.00
17 | O=C(CCCN1CCN(C(=O)OCc2ccc(Cl)cc2)CC1)Nc1ccc2[nH]nnc2c1 [Compound A14, 4-Chlorobenzyl 4-[3-(1H-benzotriazol-5-yl-carbamoyl)propyl]piperazine-1-carboxylate] | < 6.00
18 | O=C(NCCN1CCN(C(=O)OCc2ccc(C(F)(F)F)cc2)CC1)c1ccc2[nH]nnc2c1 [Compound A2, 4-Trifluoromethylbenzyl 4-{2-[(1H-benzotriazole-5-carbonyl)amino]ethyl}piperazine-1-carboxylate] | < 6.00
